What was measured:
[1] = test system: MLF; test: TGF-β1-induced myofibroblast differentiation of mouse lung fibroblasts; type: cell-based
Experimental: Human NSCLC cell line H441, HNSCC SCC25, murine cancer cell line TC-1 (lung), MC38 (colon) and human fetal foreskin fibroblasts HFFF2 were purchased from European Collection of Cell Cultures (Public Health England) or ATCC; HNSCC 5PT [32] were provided by l. Mackenzie (Queen Mary University of London, UK). HEK-293T cells and IMR90 lung fibroblasts were provided by Jesus Gil (Imperial College, London, UK). SCC25 were grown in Ham's F12:DMEM (1:1 ratio) medium with 10% FBS (Calbiochem) and 292 μg/ml L-Glutamine. 5PT were cultured in keratinocyte growth medium. HEK-293T, H441, MC38, HFFF2, IMR90 and primary fibroblasts were grown in DMEM supplemented with 10% FBS and 292 μg/ml L-Glutamine. Primary fibroblasts were isolated as previously used at early passage (p1-10). C57BL/6 murine normal lung and colon fibroblasts (MLF and MCF respectively) were grown at 3% oxygen. TC-1 were cultured in RPMI supplemented with 10% FBS and 292 μg/ml L-Glutamine. All cell cultures were routinely tested for mycoplasma contamination. All cells were cultured using standard cell culture plates/flasks (Corning). HFFF2 or IMR90 cells were transfected with 25 μM On-Target pool siRNA (Thermo Scientific/Dharmacon) using Oligofectamine reagent (Life Technologies) as described. Stable knockdown was performed using retro/lentiviral mediated transduction of shRNA plasmids, as previously described followed by cell selection using 1 μg/ml puromycin for 5-7 days. NOX4-inducible HEK-293 cells (kindly provided by Vincent Jaquet) were treated with 1 μg/ml doxycycline. […]
5×10^3 HFFF2 were plated on permanox chamber slides (Thermo Scientific) and treated as described in the figure legends. […] Images were taken using an Olympus IX81 fluorescence microscope and Xcellence program. DNA Damage foci were quantified from at least 8 non-overlapping FoV with ~300 cells in total per condition. […] SMA and Collagen 1A1 quantification was performed using Fiji. […]

[2] = test system: TC-1 cells; test: Isograft model TC-1 alone (control, myoCAF-low tumours); type: in vivo, C57/BL6 female mice; conditions: AZD0156 20 mg/Kg oral gavage daily
Experimental: All mouse experiments were performed according to national and international guidelines and were approved by the authors' institutional review board and the UK Home Office. Xenograft model: 6.7×10^5 PT cells±2×10^6 HFFF2 cells were resuspended in 100 μl PBS and injected s.c. in the flank of partially immunocompromised, male RAG1−/−C57BL/6 mice (3-5 months old). Isograft models: 0.5×10^5 TC-1 cells±3×10^5 TGF-β1-treated murine lung fibroblasts (myoMLFs) or 1×10^5 MC38 cells±5×10^5 TGF-β1-treated murine colon fibroblasts (myoMCFs) were resuspended in 100 μl PBS and injected s.c. in the flank of C57/BL6 female mice (6-8 weeks old). 5-8 animals for both models were used per group. Tumour size was measured over time using an electronic caliper and calculated using the formula 4π/3×r3 [radius (r) calculated from the average diameter, measured as the tumour width and length]. […]
The area under the curve (AUC) for each individual tumour within a treatment group for multiple experiments was analyzed by ordinary Two-way Anova using as two independent variables ‘the experiments’ (factor 1) and ‘the treatments’ (factor 2), and as dependent variable ‘the AUC’ of each mouse; then, the inventors looked at just factor 2. […]

[3] = AZD0156 0.5 μM + TGF-β1 for a week, Q-RT-PCR

## CN(C)CCCOc1ccc(-c2ccc3ncc4c(c3c2)n(C2CCOCC2)c(=O)n4C)cn1 [AZD0156]
[1]; AZD0156 0.5 μM + TGF-β1, 72 hours (Western) or 7 days (Collagen1, Fibronectin)
  myofibroblast differentiation in vitro: suppressed
[1]; [3]
  effect on iCAF genes: gene-specific and generally non-significant
  myoCAF genes expression: significantly down-regulated
[2]
  growth of control (myoCAF-low) tumours: minimal effect
